Source: patent publication US20100286250A1, “FLUORINATED LIPIDS AND METHODS OF USE” (TUFTS UNIVERSITY, priority 2007, published 2010)

Tested on: HeLa cells
Assay: Fluorescence assay of HeLa cells incubated with lipid conjugates (microtiter plate reader)
Assay type: cell-based
Details: preformed complexes, washed with PBS
Procedure: General Procedure for Incubation of Cells with Compounds: Cells were cultured in DMEM/RPMI medium supplemented with 10% fetal bovine serum and 1% penicillin/streptomycin. Cells were suspended in phosphate buffered saline (PBS), incubated with an ethanolic solution of lipid conjugates for 1-2 h at 4 or 37° C. to give a final concentration in each well of 0.01-100 μM in a total volume of 100 μL (10% EtOH). After the incubation period, cells were pelleted by centrifugation and washed (2×) and resuspended in 100 μL PBS and analyzed.
ATP Depletion: Cells were pretreated with 4 mM NaN3/0.8 mM NaF in 100 μL PBS for 30 m at 37° C. The cells were then washed with PBS (2×100 μL) and incubated with 100 μM ethanolic solutions of lipids for 2 h (total volume 100 μL, 10% EtOH). Analysis was carried out as described previously.
Incubation under Hypertonic Conditions: Cells were pretreated with 0.3 M sucrose for 30 min at 37° C. in PBS, and were then incubated with lipid solutions. Analysis was carried out as described previously.
Fluorescence Assay: After the incubation period, HeLa cells in PBS were analyzed using an Infinite™ 200 series microtiterplate reader (Tecan Systems, Inc.). All experiments were carried out in 96 well plates with six replicates. The plates were pretreated with 1% BSA for 12 h at 4° C. to minimize non-specific binding.

## AF: avidin conjugated to fluorescein isothiocyanate [reference compound]
  delivery of AF into the cell (microscopy or fluorescence counting): minimally fluorescent
